Measured values from patent publication US20140094485A1, “SOLID STATE FORMS OF HIV INHIBITOR” (Gilead Sciences, Inc., priority 2012, published 2014).
Counter-ions that a name gives are not always drawn.

Columns and labels:
[1] = Tabletability (tablet tensile strength as a function of upper punch compression pressure); format: physicochemical; details: for Tablet Tensile Strength: immediate release formulation, Form A
Description: As used herein, the term “tabletability” refers to the capacity of a powdered material to be transformed into a tablet of specified strength under the effect of compaction pressure. Tabletability is the tensile strength as a function of compression force and describes the effectiveness of the applied pressure in increasing the tensile strength of the tablet.

[2] = Thermal gravimetric analysis (TGA); format: physicochemical; details: heating up to 175° C.; FIG. 4
Description: The TGA analysis was conducted on a […]. The thermal gravimetric curve was obtained on a sample heated at 10° C. per minute in a open cup under a nitrogen flow.

With `Cc1nc2ccccc2c(-c2ccc3c4c(ccnc24)CCO3)c1[C@H](OC(C)(C)C)C(=O)O` (atropisomer, axis not shown) [hemi-succinate salt of Compound (I), (2S)-2-tert-butoxy-2-(4-(2,3-dihydropyrano[4,3,2-de]quinolin-7-yl)-2-methylquinolin-3-yl)acetic acid] the “Tablet Tensile Strength” value ([1]; Upper Punch Compression Pressure 98 MPa) was 2.17 MPa, the “Tablet Tensile Strength” value ([1]; Upper Punch Compression Pressure 140 MPa) was 2.94 MPa and the “Tablet Tensile Strength” value ([1]; Upper Punch Compression Pressure 197 MPa) was 3.18 MPa. The “Tablet Tensile Strength” value ([1]; Upper Punch Compression Pressure 253 MPa) was 3.41 MPa, the tabletability ([1]; result in words, FIG. 5) was “improved tabletability” and the “weight loss during heating” value [2] was “minimal weight loss”.
